Reference: patent publication US6693134B2, “Bicyclic aromatic chemokine receptor ligands” (Chemokine Therapeutics Corporation, priority 2001, dated 2004)

Experiments:
[1] = biological target: T1, CXCR-4 (Homo sapiens, UniProt P61073); assay: Inhibition of binding of I125 labeled SDF-1 to CXCR-4 receptor; settings: I125 labeled SDF-1 as competitor ligand
Method: This example discloses the ability of compounds of the invention, such as naphthoic acid derivatives, such as CTCM226 (1), to inhibit binding of SDF-1 to CXCR-4 receptor. The binding studies were conducted using I^125 labeled SDF-1 as competitor ligand.

[2] = biological target: T1, CXCR-4; assay: Inhibition of SDF-1 induced intracellular [Ca2+]i mobilization in THP-1 cells; type: cell-based; design: endogenous in cells; host or cells: THP-1 cells; settings: Fura-2,AM loaded THP-1 cells; incubated 60 min prior to induction by 10 nM SDF-1
Method: A rapid, transient rise in the free cytosolic Ca^2+ concentration ([Ca^2+]i) is one of the events associated with the Chemokine mediated induction of the associated receptors and is assumed to be involved in many of the subsequent cellular reactions. Both Ca^2+ release from intracellular stores and Ca^2+ influx from the extracellular space contribute to the rise in [Ca^2+]i. […] Fura-2,AM loaded THP-1 cells were incubated with CTCM226 for 60 min prior to induction of [Ca^2+]i mobilization by 10 nM SDF-1. Results illustrate the effect of CTCM226 (1) on SDF-1 induced Ca^2+ mobilization.
In accordance with this aspect of the invention, the naphthoic acid derivative, such as compound 1 or corresponding salts may be used for the treatment of a wide range of inflammatory diseases such as gout, arthritis, osteoarthritis, rheumatoid arthritis, and ARDS.

T1 sequence (P61073 whole entry): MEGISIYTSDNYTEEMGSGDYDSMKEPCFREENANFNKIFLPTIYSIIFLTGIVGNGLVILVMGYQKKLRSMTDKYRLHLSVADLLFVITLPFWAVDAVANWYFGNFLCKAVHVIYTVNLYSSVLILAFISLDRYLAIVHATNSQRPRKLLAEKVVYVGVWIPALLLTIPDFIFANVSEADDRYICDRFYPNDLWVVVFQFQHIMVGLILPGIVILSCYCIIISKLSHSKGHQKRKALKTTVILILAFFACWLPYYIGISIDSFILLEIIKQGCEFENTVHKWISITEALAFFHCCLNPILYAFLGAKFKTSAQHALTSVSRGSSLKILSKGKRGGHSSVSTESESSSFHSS

IC50 [1]: 150 µM
IC50 [2]: 0.6 µM
Compound: O=C(O)c1cc2ccccc2cc1O [Compound 1, 3-Hydroxy-2-naphthoic acid]
